The target of the series is HSD17B13. The settings on record: ASO, HepaRG.

After the bases stand the sugars from the 5' end (letter, count) and the backbone: PS all phosphorothioate, else s phosphorothioate and o phosphodiester by linkage. Methylation of C is not given here. e = 2'-O-(2-methoxyethyl) (MOE); k = constrained ethyl (cEt); d = 2'-deoxy (DNA); m = 2'-O-methyl

For the sequence “CAGGGTGGTAACGGTG (sugars k3 d1 m1 d8 k3, PS)”, the target mRNA inhibition (1 µM) was 29%.
The same measure, in the same setting: then CAGGGTGGTAACGGTG (sugars k3 d10 k3, PS), with 55%; and CAGGTAATTAATCTTG (sugars k3 d10 k3, PS), with 54%.
The same measure, in the same setting: with “CAGGTTGAGATAAAGC (sugars k3 d9 k3 e1, PS)” the figure was 63%; with CAGGTTGAGATAAAGC (sugars k3 d10 k3, PS), 49%.
For the setting “1 µM”, CAGTAAAATTATGCCT (sugars k3 d10 k3, PS) yielded a target mRNA inhibition of 38%.
Still for that read-out and setting: then CAGTAGGTGTGTTTCA (sugars k3 d10 k3, PS), with 47%; and CAGTATCCCCTCAAAT (sugars k3 d10 k3, PS), with 53%.
On the same count and under the same terms, with “CAGTUTTCCTCATGAT (sugars k3 d1 m1 d8 k3, PS)” the figure was 0%; with CATAACCATAGGACAT (sugars k3 d10 k3, PS), 41%.
On the same count and under the same terms, with CATAAGAGATGAGTAG (sugars k3 d10 k3, PS) the figure was 44%; with “CATAATAATAGCTCTA (sugars k3 d9 k3 e1, PS)”, 55%.
Under “1 µM”, CATACGCATGCGCAGT (sugars k3 d10 k3, PS) showed a target mRNA inhibition of 60%.
The same measure, in the same setting: with CATAGACATGTGTTCA (sugars k3 d10 k3, PS) the figure was 52%; with CATAGCTAACTCAGGC (sugars k3 d10 k3, PS), 29%.
On to CATAGGCTTAGTGTAG (sugars k3 d10 k3, PS), for which the target mRNA inhibition (1 µM) was determined as 38%.
Same read-out and setting: then CATATCATTATCATGC (sugars k3 d10 k3, PS), with 66%; and CATCATCGATGGAAGA (sugars k3 d10 k3, PS), with 14%.
On the same count and under the same terms, then CATCTATCAGACTTCT (sugars k3 d10 k3, PS), with 38%.
On the same count and under the same terms, then “CATCTCTGGGACCAAG (sugars k3 d9 k3 e1, PS)”, with 42%; and CATCTGTCTCCAATAC (sugars k3 d10 k3, PS), with 32%.
“CATCTTAAGATACCCA (sugars kkdddddddddkekek, PS)” yielded a target mRNA inhibition (1 µM) of 59%.
On the same count and under the same terms, with CATGGCTACAGATTGG (sugars k3 d10 k3, PS) the figure was 54%.
Take CATTAGATGGTAAGGA (sugars k3 d10 k3, PS): the target mRNA inhibition (1 µM) was found to be 32%.
The sequence CATTTAGCAGCTTGGA (sugars k3 d10 k3, PS) returned a target mRNA inhibition (0.02 µM) of 0%; a target mRNA inhibition (0.078 µM) of 0%; a target mRNA inhibition (0.313 µM) of 54%; a target mRNA inhibition (1 µM) of 88%; a target mRNA inhibition (1.25 µM) of 75%; a target mRNA inhibition (5 µM) of 86%.
Consider CCAAACTTGCCCATAA (sugars k3 d10 k3, PS), for which the target mRNA inhibition (1 µM) was 45%.
On the same count and under the same terms, with “CCAACCAAACTTCCAG (sugars kkdddddddddkekek, PS)” the figure was 15%.
The same measure, in the same setting: then CCAATATATACTGACA (sugars k3 d10 k3, PS), with 68%.
The same measure, in the same setting: then CCAATATGCTCTGTCG (sugars k3 d10 k3, PS), with 65%.
Where the note is “1 µM”, CCACAGAACCAATATG (sugars k3 d10 k3, PS) displayed a target mRNA inhibition of 49%.
The same measure, in the same setting: with CCACTATCAGAACAGT (sugars k3 d10 k3, PS) the figure was 31%; with CCACTGTGACGATGTG (sugars k3 d10 k3, PS), 0%.
Turning to CCAGAGCATTCATCAG (sugars k3 d10 k3, PS), the target mRNA inhibition (0.02 µM) is 0%; the target mRNA inhibition (0.078 µM) was 13%; the target mRNA inhibition (0.313 µM) came to 41%; the target mRNA inhibition (1 µM) came out at 83%; the target mRNA inhibition (1.25 µM) is 71%; the target mRNA inhibition (5 µM) worked out at 79%.
The sequence CCAGATTGCACAAACC (sugars k3 d10 k3, PS) registered a target mRNA inhibition (0.02 µM) of 0%; a target mRNA inhibition (0.078 µM) of 17%; a target mRNA inhibition (0.313 µM) of 51%; a target mRNA inhibition (1 µM) of 72%; a target mRNA inhibition (1.25 µM) of 78%; a target mRNA inhibition (5 µM) of 92%.
CCAGGTTGAGATAAAG (sugars k3 d10 k3, PS) showed a target mRNA inhibition (1 µM) of 49%.
Take CCAGTAAAAAATTGGT (sugars k3 d10 k3, PS): the target mRNA inhibition (1 µM) was 23%.
For the sequence “CCAGTACAGTTCCTTT (sugars kkdddddddddkekek, PS)”, the target mRNA inhibition was found to be 29% (0.02 µM); 21% (0.078 µM); 44% (0.313 µM); 75% (1 µM); 61% (1.25 µM); 90% (5 µM).
For the setting “1 µM”, “CCATCTATCAGACTTC (sugars k3 d9 k3 e1, PS)” showed a target mRNA inhibition of 60%.
On the same count and under the same terms, then CCATTATCCTTACTCC (sugars k3 d10 k3, PS), with 27%; and CCCAAACATGGATGTT (sugars k3 d10 k3, PS), with 72%.
The same measure, in the same setting: with CCCAACCAAACTTCCA (sugars k3 d10 k3, PS) the figure was 62%.
As for CCCAACGCAACAGTTT (sugars k3 d10 k3, PS), the target mRNA inhibition was determined as 4% (0.02 µM); 26% (0.078 µM); 54% (0.313 µM); 66% (1 µM); 78% (1.25 µM); 92% (5 µM).
Sequence CCCAAGAGTGGCAGGA (sugars k3 d10 k3, PS) came in with a target mRNA inhibition (1 µM) of 29%.
The same measure, in the same setting: with CCCATAACCATAGGAC (sugars k3 d10 k3, PS) the figure was 47%; with CCCGAATTATTTCTTG (sugars k3 d10 k3, PS), 34%.
In turn, CCCTAATGTGTTTTCC (sugars k3 d10 k3, PS) registered a target mRNA inhibition (1 µM) of 25%.
In turn, CCGCGCTTATTAATAT (sugars k3 d10 k3, PS) gave a target mRNA inhibition (1 µM) of 21%.
In the case of “CCGTTTTGGGCTAATG (sugars k3 d9 k3 e1, PS)”, the target mRNA inhibition (1 µM) stood at 69%.
Still for that read-out and setting: with “CCGTUTTGGGCTAATG (sugars k3 d1 m1 d8 k3, PS)” the figure was 51%; with CCTAAATTCAAAGACC (sugars k3 d10 k3, PS), 64%; with CCTAAGTTATTATCCC (sugars k3 d10 k3, PS), 18%.
Where the note is “1 µM”, CCTAATAACTACATGA (sugars k3 d10 k3, PS) registered a target mRNA inhibition of 3%.
On the same count and under the same terms, then CCTAGTTGCAATGAGA (sugars k3 d10 k3, PS), with 77%; and CCTAGTTTTCGGCACT (sugars k3 d10 k3, PS), with 62%.
For the setting “1 µM”, “CCTATATACATCCAAG (sugars k3 d9 k3 e1, PS)” yielded a target mRNA inhibition of 63%.
On the same count and under the same terms, then CCTCAAATGTCTTGGT (sugars k3 d10 k3, PS), with 6%.
As to CCTCATTTAGCAGCTT (sugars k3 d10 k3, PS), the target mRNA inhibition was determined as 14% (0.02 µM); 34% (0.078 µM); 54% (0.313 µM); 81% (1 µM); 78% (1.25 µM); 88% (5 µM).
For CCTCCACACCGCGCTT (sugars k3 d10 k3, PS), the target mRNA inhibition (1 µM) was 16%.
Same read-out and setting: with “CCTCGATCCTATATAC (sugars k3 d1 m1 d8 k3, PS)” the figure was 9%.
Same read-out and setting: with “CCTCTAAGTTAGCCCC (sugars k3 d9 k3 e1, PS)” the figure was 16%; with “CCTCTAAGTTAGCCCC (sugars kkdddddddddkekek, PS)”, 20%.
Turning to CCTGATTTAGAGAGCG (sugars k3 d10 k3, PS), the target mRNA inhibition (1 µM) was found to be 42%.
“CCTGTGTTAGCTTTAA (sugars k3 d9 k3 e1, PS)” showed a target mRNA inhibition (1 µM) of 66%.
Still for that read-out and setting: with CCTTAACAAACCTCCA (sugars k3 d10 k3, PS) the figure was 27%; with CCTTCATCTAACTAAC (sugars k3 d10 k3, PS), 30%.
Consider CCTTCTGGTTCAGTCC (sugars k3 d10 k3, PS), for which the target mRNA inhibition by setting is: (0.02 µM) 9%; (0.078 µM) 20%; (0.313 µM) 39%; (1 µM) 72%; (1.25 µM) 68%; (5 µM) 89%.
Regarding CGACTTCATCTGTCTC (sugars k3 d10 k3, PS), the target mRNA inhibition (1 µM) amounted to 19%.
Sequence CGCCTAGTTTTCGGCA (sugars k3 d10 k3, PS) showed a target mRNA inhibition (1 µM) of 23%.
Same read-out and setting: then CGCGAGATGATGTTGC (sugars k3 d10 k3, PS), with 53%.
The same measure, in the same setting: with CGCGCTTATTAATATC (sugars k3 d10 k3, PS) the figure was 6%.
The same measure, in the same setting: with CGTAGCAAATGTAAGA (sugars k3 d10 k3, PS) the figure was 0%; with CGTCAAAAACCGTCAA (sugars k3 d10 k3, PS), 20%.
As for CGTTAGGTTTCCAAAT (sugars k3 d10 k3, PS), under “1 µM”, the target mRNA inhibition is 0%.
On the same count and under the same terms, then CGTTTACTCACTTCTG (sugars k3 d10 k3, PS), with 21%.
Turning to CGTTTATCATATGCTA (sugars k3 d10 k3, PS), the target mRNA inhibition is, setting by setting: (0.02 µM) 9%; (0.078 µM) 29%; (0.313 µM) 57%; (1 µM) 88%; (1.25 µM) 77%; (5 µM) 86%.
“CGTTTGACTGCTGCTA (sugars kkdddddddddkekek, PS)” came in with a target mRNA inhibition (1 µM) of 48%.
“CGTTTTGGGCTAATGA (sugars kkdddddddddkekek, PS)”: for the setting “1 µM”, the target mRNA inhibition was determined as 37%.
The sequence “CGTTUGACTGCTGCTA (sugars k3 d1 m1 d8 k3, PS)” displayed a target mRNA inhibition (1 µM) of 54%.
Same read-out and setting: then “CGTTUTGGGCTAATGA (sugars k3 d1 m1 d8 k3, PS)”, with 34%.

Source of the values: the OligoGym collection.
